One assay concerns the target Focal adhesion kinase 1 (Homo sapiens, UniProt Q05397). The note with it: at 10 µM.
The subject of assay [1] is Receptor-type tyrosine-protein kinase FLT3 (Homo sapiens), P36888 [UNDEFINED MUTATION]. Briefly: (§1) Selectivity interaction (KinomeScan (DiscoverX)) EUB0000045b FLT3.
Assay [2] deals with T1, Receptor-type tyrosine-protein kinase FLT3 (Homo sapiens), P36888 [K663Q].
T1 sequence (whole entry): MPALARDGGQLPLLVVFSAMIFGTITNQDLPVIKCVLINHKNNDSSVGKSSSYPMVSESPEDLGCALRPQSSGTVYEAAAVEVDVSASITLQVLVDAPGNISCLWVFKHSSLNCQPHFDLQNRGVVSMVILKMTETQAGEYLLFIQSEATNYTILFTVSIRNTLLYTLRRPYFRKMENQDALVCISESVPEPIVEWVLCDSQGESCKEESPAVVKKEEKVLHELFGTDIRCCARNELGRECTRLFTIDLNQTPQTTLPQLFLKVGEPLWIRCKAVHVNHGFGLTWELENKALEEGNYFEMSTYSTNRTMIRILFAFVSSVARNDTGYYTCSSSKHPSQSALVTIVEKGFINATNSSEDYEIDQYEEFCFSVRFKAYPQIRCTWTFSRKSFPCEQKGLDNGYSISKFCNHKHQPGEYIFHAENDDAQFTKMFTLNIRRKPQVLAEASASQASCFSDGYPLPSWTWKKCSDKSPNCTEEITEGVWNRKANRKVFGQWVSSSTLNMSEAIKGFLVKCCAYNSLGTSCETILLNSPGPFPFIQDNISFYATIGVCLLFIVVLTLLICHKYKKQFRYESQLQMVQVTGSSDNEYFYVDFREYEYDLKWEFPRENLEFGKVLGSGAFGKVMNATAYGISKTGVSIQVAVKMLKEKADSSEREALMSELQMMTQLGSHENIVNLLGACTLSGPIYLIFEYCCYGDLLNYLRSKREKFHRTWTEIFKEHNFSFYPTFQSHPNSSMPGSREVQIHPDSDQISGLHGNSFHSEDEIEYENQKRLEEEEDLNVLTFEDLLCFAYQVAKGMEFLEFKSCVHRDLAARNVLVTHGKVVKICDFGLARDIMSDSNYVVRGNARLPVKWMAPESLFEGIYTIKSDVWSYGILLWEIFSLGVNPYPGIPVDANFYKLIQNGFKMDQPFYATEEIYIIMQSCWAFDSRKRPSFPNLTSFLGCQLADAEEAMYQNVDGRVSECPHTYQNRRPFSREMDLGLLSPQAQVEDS
Described as §1.

The target in assay [3] is Receptor-type tyrosine-protein kinase FLT3 (Homo sapiens) (UniProt P36888). The description is as §1.
Assay [4] deals with Calcium/calmodulin-dependent protein kinase type 1 (Homo sapiens) (UniProt Q14012). Description: Selectivity interaction (KinomeScan (DiscoverX)) EUB0000666a CAMK1. The note with it: at 10 µM.
Chain of Calcium/calmodulin-dependent protein kinase type 1 (Homo sapiens) (Q14012 whole entry, looked up): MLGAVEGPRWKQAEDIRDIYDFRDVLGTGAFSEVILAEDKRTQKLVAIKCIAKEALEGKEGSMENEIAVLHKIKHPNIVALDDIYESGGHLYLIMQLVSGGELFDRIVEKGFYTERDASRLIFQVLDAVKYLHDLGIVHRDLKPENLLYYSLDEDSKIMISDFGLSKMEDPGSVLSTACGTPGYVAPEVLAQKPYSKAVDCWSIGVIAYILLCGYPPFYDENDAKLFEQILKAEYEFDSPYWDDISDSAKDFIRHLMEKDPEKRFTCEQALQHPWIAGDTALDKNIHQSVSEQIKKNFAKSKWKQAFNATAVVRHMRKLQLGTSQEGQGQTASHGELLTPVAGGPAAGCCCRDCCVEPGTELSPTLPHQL
The target in assay [5] is Tyrosine-protein kinase Srms (Homo sapiens) (UniProt Q9H3Y6). Description: Selectivity interaction (Kinase panel (Invitrogen)) EUB0000639a SRMS. The following applies: at 200 nM.
Chain of Tyrosine-protein kinase Srms (Homo sapiens) (Q9H3Y6 whole entry): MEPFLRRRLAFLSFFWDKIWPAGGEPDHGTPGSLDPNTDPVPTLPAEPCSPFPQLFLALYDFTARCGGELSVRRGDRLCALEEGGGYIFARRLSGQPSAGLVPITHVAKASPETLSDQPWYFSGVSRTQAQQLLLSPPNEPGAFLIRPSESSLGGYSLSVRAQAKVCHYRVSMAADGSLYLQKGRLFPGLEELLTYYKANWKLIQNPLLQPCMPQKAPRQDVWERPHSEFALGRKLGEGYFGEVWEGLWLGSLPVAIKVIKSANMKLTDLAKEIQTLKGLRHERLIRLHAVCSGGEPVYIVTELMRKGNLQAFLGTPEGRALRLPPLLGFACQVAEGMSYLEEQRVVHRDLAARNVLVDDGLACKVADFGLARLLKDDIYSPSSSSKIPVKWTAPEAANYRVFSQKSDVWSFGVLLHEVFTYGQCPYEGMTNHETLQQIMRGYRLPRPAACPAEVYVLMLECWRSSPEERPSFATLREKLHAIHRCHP
The target of assay [6] is Calcium/calmodulin-dependent protein kinase type 1 (Homo sapiens) (UniProt Q14012). Briefly: Selectivity interaction (ActivX KiNativ screen (kinase selectivity in THP-1 cell lysates)) EUB0000639a CAMK1. It counts as subcellular. The note with it: lysate, at 0.01 µM.
Assay [7] concerns the target T2, Serine/threonine-protein kinase D2 (Homo sapiens) (UniProt Q9BZL6).
T2 sequence (whole entry): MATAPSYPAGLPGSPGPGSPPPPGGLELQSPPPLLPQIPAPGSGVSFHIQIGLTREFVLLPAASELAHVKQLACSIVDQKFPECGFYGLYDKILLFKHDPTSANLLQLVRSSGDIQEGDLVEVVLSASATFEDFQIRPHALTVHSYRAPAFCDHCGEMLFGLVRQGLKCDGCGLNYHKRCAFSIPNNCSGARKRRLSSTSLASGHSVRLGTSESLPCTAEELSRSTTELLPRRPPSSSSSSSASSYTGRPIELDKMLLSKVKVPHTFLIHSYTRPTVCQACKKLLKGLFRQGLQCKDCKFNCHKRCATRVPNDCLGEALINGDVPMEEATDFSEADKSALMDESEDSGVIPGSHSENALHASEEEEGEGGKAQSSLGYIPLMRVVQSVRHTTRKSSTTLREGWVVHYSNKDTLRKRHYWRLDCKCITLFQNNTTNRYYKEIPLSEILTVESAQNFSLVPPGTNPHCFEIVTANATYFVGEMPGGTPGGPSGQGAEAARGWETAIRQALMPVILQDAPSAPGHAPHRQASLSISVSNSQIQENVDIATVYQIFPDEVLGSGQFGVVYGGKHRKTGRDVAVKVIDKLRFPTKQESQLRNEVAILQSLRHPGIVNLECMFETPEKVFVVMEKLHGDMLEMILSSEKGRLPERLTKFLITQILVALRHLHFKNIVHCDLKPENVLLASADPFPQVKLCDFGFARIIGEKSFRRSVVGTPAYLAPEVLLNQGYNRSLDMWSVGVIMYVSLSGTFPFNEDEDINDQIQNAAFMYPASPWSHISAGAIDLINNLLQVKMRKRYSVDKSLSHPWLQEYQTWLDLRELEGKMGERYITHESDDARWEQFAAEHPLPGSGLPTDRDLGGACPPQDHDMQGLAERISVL
Briefly: Selectivity interaction (Kinase panel (KiNativ target engagement assay in Jurkat cells)) EUB0001635a PRKD2. The note with it: at 1 µM. The format is cell-based.

Molecules are shown by their SMILES.

Chain of Focal adhesion kinase 1 (Q05397 2-1052 limits assumed): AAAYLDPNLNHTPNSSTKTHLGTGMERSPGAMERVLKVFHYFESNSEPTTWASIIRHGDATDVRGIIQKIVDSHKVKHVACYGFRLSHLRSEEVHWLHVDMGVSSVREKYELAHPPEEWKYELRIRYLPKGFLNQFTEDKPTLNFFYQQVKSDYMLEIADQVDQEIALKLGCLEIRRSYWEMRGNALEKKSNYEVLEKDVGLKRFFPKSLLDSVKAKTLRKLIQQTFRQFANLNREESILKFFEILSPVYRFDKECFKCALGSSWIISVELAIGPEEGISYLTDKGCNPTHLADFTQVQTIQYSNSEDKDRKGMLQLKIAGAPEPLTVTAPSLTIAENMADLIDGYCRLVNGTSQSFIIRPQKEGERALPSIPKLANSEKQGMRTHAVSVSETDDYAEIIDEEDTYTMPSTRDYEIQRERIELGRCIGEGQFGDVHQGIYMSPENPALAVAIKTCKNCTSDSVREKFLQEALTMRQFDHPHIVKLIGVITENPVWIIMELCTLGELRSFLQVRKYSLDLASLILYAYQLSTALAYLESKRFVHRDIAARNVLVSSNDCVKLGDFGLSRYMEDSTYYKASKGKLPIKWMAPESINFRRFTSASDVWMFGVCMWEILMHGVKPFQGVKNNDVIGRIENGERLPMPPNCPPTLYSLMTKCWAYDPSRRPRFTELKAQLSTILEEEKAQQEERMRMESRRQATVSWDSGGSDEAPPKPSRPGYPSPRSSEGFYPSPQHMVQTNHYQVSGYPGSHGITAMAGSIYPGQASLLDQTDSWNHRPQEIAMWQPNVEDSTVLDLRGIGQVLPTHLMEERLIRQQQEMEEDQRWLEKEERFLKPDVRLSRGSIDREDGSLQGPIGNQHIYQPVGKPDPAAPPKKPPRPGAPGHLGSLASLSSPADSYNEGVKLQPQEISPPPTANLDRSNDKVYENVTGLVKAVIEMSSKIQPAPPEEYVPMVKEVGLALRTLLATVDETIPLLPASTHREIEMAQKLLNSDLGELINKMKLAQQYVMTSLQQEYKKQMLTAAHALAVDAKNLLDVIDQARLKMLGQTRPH

The compound `CCN(CC)CCCCNc1ncc2cc(-c3cc(OC)cc(OC)c3)c(NC(=O)NC(C)(C)C)nc2n1` returned a % of control on Focal adhesion kinase 1 of 100%.

With `C=CC(=O)Nc1cc(-n2c(=O)ccc3cnc4ccc(-c5ccc(NS(C)(=O)=O)cc5)cc4c32)ccc1C`, the % of control in assay [1] (at 1 µM) stood at 99%; in assay [1] (at 10 µM), 100%; in assay [2] (at 1 µM), 100%; in assay [2] (at 10 µM) it was 100%; in assay [3] (at 1 µM), 80%; in assay [3] (at 10 µM), 81%.

In the case of `O=C(NOC[C@H](O)CO)c1ccc(F)c(F)c1Nc1ccc(I)cc1F`, the % of control in assay [4] worked out at 98%.

With `CC[C@@H]1[C@H](F)C(=O)N[C@@H]1COc1nccc2cc(C(N)=O)c(OC)cc12` [ZIMLOVISERTIB], the % of inhibition turned out to be 6.49% in assay [5] and 2.7% in assay [6].

For `C=CC(=O)Nc1ccc(C(=O)Nc2[nH]nc3c2CN(C(=O)N[C@H](CN(C)C)c2ccccc2)C3(C)C)cc1`, the % of engagement in assay [7] is -4.9%.

Values taken from ChEMBL document CHEMBL5465560, “Selectivity Literature for EUbOPEN Chemogenomic Library” (2024).
